Assay results as given in patent publication US20220241409A1, “WATER SOLUBLE ADJUVANT AND COMPOSITION CONTAINING SAME” (Sumitomo Dainippon Pharma Co., Ltd., priority 2019, published 2022).

How the values were obtained:
Antigen-Specific CTL = experiment: Action of anti-PD-1 antibody in immune response of antigen-specific CTL for peptide and tumor cell (Test 13); type: in vivo, mouse; details: splenocyte of mice receiving vaccine b with Example 2 (325 ng per body, twice); antibody 37.5 μg/mL; culture with tumor cells and Peptide SEQ ID No. 1 about three days
Protocol: Vaccine b prepared like Test 8 was injected to a HLA-A*02:01 transgenic mouse intradermally at the tail base area in an amount for administering 300 μg of Compound of formula 4 per body and 225 μg of Peptide SEQ ID No. 3 per body. Or, a vaccine prepared by adding the compound prepared in Example 2 to vaccine b was injected to a HLA-A*02:01 transgenic mouse intradermally at the tail base area in an amount for administering 300 μg of Compound of formula 4 per body, 225 μg of Peptide SEQ ID No. 3 per body, and 325 ng of the compound prepared in Example 2 per body. The administrations were done twice, which had one week interval. One week after the final administration, the mice were sacrificed with CO2 gas, and then spleens removed from the mice. A splenocyte suspension was prepared from the spleens with CTM. And, like Test 11, Peptide SEQ ID No. 1 was pulsed to a part of the splenocyte, and the cell was mixed with LLC-HHD-WT1 tumor cell. To the mixed cells was added an isotype control antibody (Rat IgG2ax, BD Pharmingen) or anti-PD-1 antibody (clone 29F.1A12, Biolegend) at a final concentration of 37.5 μg/mL, and the mixture was cultured at 37° C. under an atmosphere of 5% CO2 for about three days. The concentration of mouse IFN-γ in the culture supernatant was measured with an ELISA kit.

[1] = tested on: MCA-A24/Kb-WT1 tumor cells; experiment: In vivo suppression of tumor growth by vaccine (Test 15); details: 27th day after transplantation, HLA-A*24:02 transgenic mouse, vaccination 7 days before and after transplantation; versus vehicle (group a); group b p<0.05, group c (100 ng Example 2 per body) p<0.01
Protocol: The HLA-A*24:02 transgenic mouse (C57BL/6CrHLA-A24/Kb) used herein is a mouse expressing a chimeric HLA (HLA-A*2402/Kb) of a human MHC (HLA-A*24:02) and a mouse MHC (H-2Kb) (Int. J. Cancer 2002; 100: 565-570). The mouse can induce […] CTLs with a peptide which can bind to human HLA-A*24:02.
A suspension of 3-methylcholanthrene in corn oil was administered to a HLA-A*24:02 transgenic mouse intradermally at the ventral region. From the tumor generated at the administration site, HLA-A*2402/Kb-expressing tumor cells were obtained. Cell lines established by stably expressing WT1 antigen peptide (SEQ ID No. 2) in the cells (herein, also referred to as MCA-A24/Kb-WT1 tumor cells) were suspended in Hanks' Balanced Salt Solution and intradermally transplanted to the ventral region of HLA-A*24:02 transgenic mouse (5×10^5 cells per mouse). The mice made to receive a vehicle (Group a), a vaccine (Group b), or a vaccine containing the compound prepared in Example 2 (Group c) were classified. Six mice per group were used. […] The tumor size was measured 27 days after the tumor transplantation and the tumor volume was calculated.

[2] = tested on: HLA-A*02:01 transgenic mouse; experiment: In vivo adjuvant activity, CTL induction with vaccine c, IFNγ ELISPOT (Test 9); details: 32.5 ng per body added to vaccine c versus no compound; twice, one week interval
Protocol: The in vivo adjuvant activity of the compounds prepared in Example 3 was evaluated in the following procedure. To a vaccine comprising Peptide SEQ ID No. 1 prepared in Reference example 1 with a preliminarily-emulsified composition (hereinafter, referred to as “vaccine c”) was added the compound prepared in Example 3 to prepare a vaccine. The vaccine was administered to a HLA-A*02:01 transgenic mouse, and the adjuvant activity of the vaccine was evaluated by the method of testing antigen-specific CTL induction.
Specifically, Peptide SEQ ID No. 1 was dissolved in DMSO, and then diluted with water for injection to concentrations of Peptide SEQ ID No. 1 of 2 mg/mL. The diluted peptide solution was mixed and emulsified with an equal volume of a preliminarily-emulsified composition to prepare vaccine c. Vaccine c was injected to mice intradermally at the tail base area in an amount for administering 200 μg of Peptide SEQ ID No. 1 per body. Or, in the step of preparing vaccine c, the compound prepared in Example 3 was added to the diluted peptide solution to prepare a vaccine, and the prepared vaccine was injected to mice intradermally at the tail base area in an amount for administering 200 μg of Peptide SEQ ID No. 1 per body, and 32.5 ng of the compound prepared in Example 3 per body. […] Then, after removal of the supernatant from the wells, stained spots on the ELISPOT plate were counted.

Row | Structure (SMILES) | amount of IFN-γ produced from the CTL with anti-PD-1 antibody relative to isotype control antibody (Antigen-Specific CTL) [times] | growth of tumor cells (average tumor volume) [1] | CTL counts responsive to Peptide of SEQ ID No. 1 [2]
1 | CCCCOc1nc(N)c2[nH]c(=O)n(Cc3ccc(CN(C)CCOCCOCCOCCOCCO)nc3)c2n1 [Example 2, 6-amino-2-butoxy-9-{[6-(16-hydroxy-2-methyl-5,8,11,14-tetraoxa-2-azahexadecan-1-yl)pyridin-3-yl]methyl}-7,9-dihydro-8H-purin-8-one-trifluoroacetate] | 4 | more potently suppressed | –
2 | CCCCOc1nc(N)c2[nH]c(=O)n(Cc3ccc(CN(C)CCOCCOCCOCCOCCO)cc3)c2n1 [Example 3, 6-amino-2-butoxy-9-{[4-(16-hydroxy-2-methyl-5,8,11,14-tetraoxa-2-azahexadecan-1-yl)phenyl]methyl}-7,9-dihydro-8H-purin-8-one] | – | – | more
